This passage reports IC50 results from patent publication US9751881B2, “Inhibitors of the renal outer medullary potassium channel” (Merck Sharp & Dohme Corp., priority 2013, dated 2017).

Where a name gives a salt, the structure may show the parent alone.

The target of one experiment is hROMK (hKir1.1) (Homo sapiens (Human), UniProt P48048). As to the kind of experiment: Thallium Flux Assay (ROMK channel functional thallium flux, FLIPR-Tetra). In kind it is cell-based. Conditions: HEK293 cells stably expressing hROMK (hKir1.1); unit not given in Table 4 (IC50 potencies less than 1 μM); read-out: ROMK TI IC50. The procedure: Cell Culture Conditions—HEK293 cells stably expressing hROMK (hKir1.1) were grown at 37° C. in a 10% CO2 humidified incubator in complete growth media: Dulbecco's Modified Eagle Medium supplemented with non-essential amino acids, Penicillin/Streptomycin/Glutamine, G418 and FBS. At >80% confluency, the media was aspirated from the flask and rinsed with 10 mL calcium/magnesium-free PBS. […] To dislodge the cell, the side of the flask was gently banged with one's hand. The cells completely titrated and then the cells were transferred to 25 mL complete media, centrifuged at 1,500 rpm for 6 min followed by resuspension in complete growth media and determine cell concentration. […] Under ideal growth conditions and appropriate tissue culture practices, this cell line is stable for 40-45 passages.
hROMK (hKir1.1), sequence (P48048 whole entry): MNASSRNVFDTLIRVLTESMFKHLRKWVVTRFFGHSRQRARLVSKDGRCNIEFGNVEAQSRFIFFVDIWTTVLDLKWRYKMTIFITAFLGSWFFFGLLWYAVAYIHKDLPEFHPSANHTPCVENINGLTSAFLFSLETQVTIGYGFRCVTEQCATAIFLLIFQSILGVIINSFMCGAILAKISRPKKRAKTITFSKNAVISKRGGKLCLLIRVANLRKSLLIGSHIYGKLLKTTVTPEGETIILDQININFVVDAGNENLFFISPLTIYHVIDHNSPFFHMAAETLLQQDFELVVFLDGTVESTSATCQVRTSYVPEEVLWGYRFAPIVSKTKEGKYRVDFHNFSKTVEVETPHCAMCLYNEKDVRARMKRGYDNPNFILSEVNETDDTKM
FluxOR Kit Components (Invitrogen F10017)
• FluxOR™ Reagent (Component A) • FluxOR™ Assay Buffer (Component B)—10× Concentrate • PowerLoad™ Concentrate (Component C)—100× Concentrate • Probenecid (Component D)—Lyophilized sample is kept at −20° C. Water soluble, 100× after solubilization in 1 mL water. […] Store at 4° C. • Thallium sulfate (Tl2SO4) Concentrate (Component G)—50 mM in water. […] Can be stored at room temperature • Stimulant Buffer (prepared at 5× final concentration in 1× FluxOR™Chloride-Free Buffer): 7.5 mM thallium sulfate and 0.75 mM potassium sulfate (to give a final assay concentration of 3 mM Thallium/0.3 mM potassium). Store at 4° C. when not in use. If kept sterile, this solution is good for months.
• 1. Seed HEK-hKir1.1 cells (50 μl at 20,000 cells/well) in 384-well PDL coated Microplates • 2. Allow cells to adhere overnight in humidified 37° C./10% CO2 incubator • 3. Completely remove cell growth media from microplate and replace with 25 μl loading buffer • 4. Incubate Microplate at room temperature, protected form light, for 90 min • 5. Remove loading buffer and replace with 25 μl 1× Assay Buffer±test compound. • 6. Incubate microplate at room temperature, protected from light, for 30 min • 7. […] Excitation=400 nm, Emission=460 & 580 nm. Collect data for ˜10 min.
Data Calculation—The fluorescence intensity of wells containing 3 μM of a standard control ROMK inhibitor of the present invention was used to define the ROMK-sensitive component of thallium flux. Fluorescence in the presence of test compounds was normalized to control values to provide % fluorescence change.
Usually IC50 stands for the concentration needed to halve the response being measured. As to `Cc1c([C@@H](O)CN2CCC3(CC2)OCCN(c2ccc(S(C)(=O)=O)cn2)C3=O)ccc2c1COC2=O` [Example 97, (R)-9-(2-Hydroxy-2-(4-methyl-1-oxo-1,3-dihydroisobenzofuran-5-yl)ethyl)-4-(5-(methylsulfonyl)pyridin-2-yl)-1-oxa-4,9-diazaspiro[5.5]undecan-5-one], the IC50 was found to be 187 nM.
Still for that read-out and setting: the result for `Cc1c([C@@H](O)CN2CCC3(CC2)CCN(c2ccc(S(C)(=O)=O)nc2)C3=O)ccc2c1COC2=O` [Example 55, (R)-8-(2-Hydroxy-2-(4-methyl-1-oxo-1,3-dihydroisobenzofuran-5-yl)ethyl)-2-(6-(methylsulfonyl)pyridin-3-yl)-2,8-diazaspiro[4.5]decan-1-one] reads 85.1 nM; that for `Cc1cc(N2CCC3(CCN(C[C@H](O)c4ccc5c(c4C)COC5=O)CC3)C2)cnc1S(C)(=O)=O` [Example 23, (R)-5-(1-Hydroxy-2-(2-(5-methyl-6-(methylsulfonyl)pyridin-3-yl)-2,8-diazaspiro[4.5]decan-8-yl)ethyl)-4-methylisobenzofuran-1(3H)-one], 135 nM.
`Cc1cc(C#N)c(N2CCC3(CCN(CC(O)c4ccc5c(c4C)COC5=O)CC3)CC2)nn1` (stereo not shown) [Example 112]: the IC50 amounted to 161 nM.
With `Cc1c([C@H](O)CN2CCC3(CC2)CCN(c2ccc(S(C)(=O)=O)cn2)C3)ccc2c1COC2=O` [Example 56, (S)-5-(1-Hydroxy-2-(2-(5-(methylsulfonyl)pyridin-2-yl)-2,8-diazaspiro[4.5]decan-8-yl)ethyl)-4-methylisobenzofuran-1(3H)-one], the 50% inhibitory concentration (IC50) amounted to 341 nM.
Take `Cc1c(CCN2CCC3(CC2)CC(=O)N(c2ccc(C#N)cn2)C3)ccc2c1COC2=O` [Example 4, 6-(8-(2-(4-methyl-1-oxo-1,3-dihydroisobenzofuran-5-yl)ethyl)-3-oxo-2,8-diazaspiro[4.5]decan-2-yl)nicotinonitrile]: the IC50 was 12 nM.
As for `Cc1cc2c(cc1C(O)CN1CCC3(CC1)CC(=O)N(c1ccc(C#N)cn1)C3)COC2=O` (stereo not shown) [Example 2, 6-(8-(2-hydroxy-2-(6-methyl-1-oxo-1,3-dihydroisobenzofuran-5-yl)ethyl)-3-oxo-2,8-diazaspiro[4.5]decan-2-yl)nicotinonitrile], the IC50 was found to be 23 nM.
Take `Cc1c([C@@H](O)CN2CCC3(CC2)CCN(c2ccc(C#N)nn2)CC3)ccc2c1COC2=O` [Example 105, (R)-6-(9-(2-hydroxy-2-(4-methyl-1-oxo-1,3-dihydroisobenzofuran-5-yl)ethyl)-3,9-diazaspiro[5.5]undecan-3-yl)pyridazine-3-carbonitrile]: the IC50 turned out to be 13.5 nM.
For `Cc1nc(N2CCC3(CCN(C[C@H](O)c4ccc5c(c4C)COC5=O)CC3)C2)ccc1S(C)(=O)=O` [Example 36, (R)-5-(1-Hydroxy-2-(2-(6-methyl-5-(methylsulfonyl)pyridin-2-yl)-2,8-diazaspiro[4.5]decan-8-yl)ethyl)-4-methylisobenzofuran-1(3H)-one], the IC50 worked out at 75.7 nM.
With `CCS(=O)(=O)c1cnc(N2CCC3(CCN(C[C@H](O)c4ccc5c(c4C)COC5=O)CC3)C2)cn1` [Example 63, 5-[(1R)-2-{2-[5-(Ethylsulfonyl)pyrazin-2-yl]-2,8-diazaspiro[4.5]dec-8-yl}-1-hydroxyethyl]-4-methyl-2-benzofuran-1(3H)-one hydrochloride], the IC50 came to 83.2 nM.
For the compound `Cc1c([C@@H](O)CN2CCC3(CC2)CCN(c2ccc(C#N)cn2)C3)ccc2c1COC2=O` [Example 3, (R)-6-(8-(2-hydroxy-2-(4-methyl-1-oxo-1,3-dihydroisobenzofuran-5-yl)ethyl)-2,8-diazaspiro[4.5]decan-2-yl)nicotinonitrile], the IC50 came to 10 nM.
`Cc1cc(N2CCC3(CCN(C[C@H](O)c4ccc5c(c4C)COC5=O)CC3)C2)cnc1C#N` [Example 81]: the IC50 was found to be 10.1 nM.
On the same count and under the same terms, the result for `Cc1c(C(O)CN2CCC3(CC2)CCN(c2cnc(C#N)cn2)CC3)ccc2c1COC2=O` (stereo not shown) [Example 111] reads 9.62 nM.
On to `Cc1c([C@@H](O)CN2CCC3(CC2)CN(c2ccc(S(C)(=O)=O)nc2)C3)ccc2c1COC2=O` [Example 46, (R)-5-(1-Hydroxy-2-(2-(6-(methylsulfonyl)pyridin-3-yl)-2,7-diazaspiro[3.5]nonan-7-yl)ethyl)-4-methylisobenzofuran-1(3H)-one], for which the IC50 turned out to be 256 nM.
On to `Cc1c([C@@H](O)CN2CCC3(CC2)CCN(c2ccc(S(C)(=O)=O)cn2)C3)ccc2c1COC2=O` [Example 22, (R)-5-(1-Hydroxy-2-(2-(5-(methylsulfonyl)pyridin-2-yl)-2,8-diazaspiro[4.5]decan-8-yl)ethyl)-4-methylisobenzofuran-1(3H)-one], for which the IC50 came out at 41.1 nM.
Consider `Cc1c([C@@H](O)CN2CCC3(CC2)CCN(c2cnc(C#N)cn2)C3)ccc2c1COC2=O` [Example 83], for which the half-maximal inhibitory concentration (IC50) amounted to 4.7 nM.
Regarding `Cc1c([C@@H](O)CN2CCC3(CC2)CCN(c2ccc(S(C)(=O)=O)nn2)C3)ccc2c1COC2=O` [Example 32, (R)-5-(1-Hydroxy-2-(2-(6-(methylsulfonyl)pyridazin-3-yl)-2,8-diazaspiro[4.5]decan-8-yl)ethyl)-4-methylisobenzofuran-1(3H)-one], the IC50 is 177 nM.
As for `C[C@@H]1Cc2cc(C(O)CN3CCC4(CC3)CN(c3ccc(C#N)cn3)C4)ccc2C(=O)O1` (stereo partly drawn) [Example 52B, 6-(7-(2-Hydroxy-2-((R)-3-methyl-1-oxoisochroman-6-yl)ethyl)-2,7-diazaspiro[3.5]nonan-2-yl)nicotinonitrile], the concentration for half-maximal inhibition (IC50) amounted to 69.9 nM.
On to `Cc1c([C@@H](O)CN2CCC3(CC2)CCN(c2ccc(S(C)(=O)=O)nn2)C3=O)ccc2c1COC2=O` [Example 57, (R)-8-(2-Hydroxy-2-(4-methyl-1-oxo-1,3-dihydroisobenzofuran-5-yl)ethyl)-2-(6-(methylsulfonyl)pyridazin-3-yl)-2,8-diazaspiro[4.5]decan-1-one], for which the IC50 is 59.2 nM.
Still for that read-out and setting: the result for `CN[C@@H](CN1CCC2(CC1)CCN(c1ccc(C#N)cn1)C2)c1ccc2c(c1C)COC2=O` [Example 77, (R)-6-(8-(2-(4-methyl-1-oxo-1,3-dihydroisobenzofuran-5-yl)-2-(methylamino)ethyl)-2,8-diazaspiro[4.5]decan-2-yl)nicotinonitrile] reads 61.3 nM; that for `Cc1c(C(O)CN2CCC3(CC2)CCN(c2cc(C#N)ncn2)CC3)ccc2c1COC2=O` (stereo not shown) [Example 106], 26.3 nM.
With `Cc1c([C@@H](O)CN2CCC3(CC2)CN(c2ccc(S(C)(=O)=O)cc2)C(=O)O3)ccc2c1COC2=O` [Example 94, (R)-8-(2-Hydroxy-2-(4-methyl-1-oxo-1,3-dihydroisobenzofuran-5-yl)ethyl)-3-(4-(methylsulfonyl)phenyl)-1-oxa-3,8-diazaspiro[4.5]decan-2-one], the IC50 is 159 nM.
Take `Cc1c([C@@H](O)CN2CCC3(CC2)CCN(c2ccc(S(C)(=O)=O)cn2)C3=O)ccc2c1COC2=O` [Example 96, (R)-8-(2-Hydroxy-2-(4-methyl-1-oxo-1,3-dihydroisobenzofuran-5-yl)ethyl)-2-(5-(methylsulfonyl)pyridin-2-yl)-2,8-diazaspiro[4.5]decan-1-one]: the IC50 was found to be 86 nM.
Turning to `Cc1c([C@@H](O)CN2CCC3(CC2)CN(c2ccc(S(C)(=O)=O)nn2)C3)ccc2c1COC2=O` [Example 48, (R)-5-(1-Hydroxy-2-(2-(6-(methylsulfonyl)pyridazin-3-yl)-2,7-diazaspiro[3.5]nonan-7-yl)ethyl)-4-methylisobenzofuran-1(3H)-one], the IC50 was 71 nM.
The same measure, in the same setting: the result for `Cc1c([C@@H](O)CN2CCC3(CC2)CCN(c2ccnc(C#N)c2)C3)ccc2c1COC2=O` [Example 60, (R)-4-(8-(2-Hydroxy-2-(4-methyl-1-oxo-1,3-dihydroisobenzofuran-5-yl)ethyl)-2,8-diazaspiro[4.5]decan-2-yl)picolinonitrile] reads 54.4 nM.
As for `Cc1c([C@@H](O)CN2CCC3(CC2)CC(=O)N(c2ccc(-n4cnnn4)cn2)C3)ccc2c1COC2=O` [Example 6, (R)-2-(5-(1H-tetrazol-1-yl)pyridin-2-yl)-8-(2-hydroxy-2-(4-methyl-1-oxo-1,3-dihydroisobenzofuran-5-yl)ethyl)-2,8-diazaspiro[4.5]decan-3-one], the IC50 came to 92.5 nM.
For the compound `Cc1c(CCN2CCC3(CC2)CCN(c2ccc(-c4ncon4)cn2)C3)ccc2c1COC2=O` [Example 17, 5-(2-(2-(5-(1,2,4-oxadiazol-3-yl)pyridin-2-yl)-2,8-diazaspiro[4.5]decan-8-yl)ethyl)-4-methylisobenzofuran-1(3H)-one], the half-inhibitory concentration (IC50) was 190 nM.

Still in this experiment, the particulars now being: read-out: ROMK TI IC50.
On to `Cc1c([C@@H](O)CN2CCC3(CC2)CCN(c2ccc(C#N)cn2)CC3)ccc2c1COC2=O` [Example 104], for which the IC50 is 26 nM.
